Converted amounts (≈) assume the structure as drawn.
Experiment: Carrier properties: solubility
Assay type: physicochemical
Details: for Solubility (appearance): 200 mg/mL

Compound: Nc1ccc(F)cc1C(=O)NCCCCCCCC(=O)O [Compound 1, N-(2-Amino-5-fluorobenzoyl)-8-aminocaprylic Acid]
- Solubility (appearance) (pH = 8.7): slightly milky
- solubility (pH 8.7): 200 mg/mL (≈ 675 mM)

Compound: Nc1ccc(F)cc1C(=O)Nc1ccc(CCCC(=O)O)cc1 [Compound 2, 4-(N-(2-amino-5-fluorobenzoyl)-4-aminophenyl)butyric]
- Solubility (appearance) (pH = 8.44): milky suspension
- solubility (pH 8.44): 200 mg/mL (≈ 632 mM)

Compound: O=C(O)CCCCCCCC(=O)Nc1cc(Cl)ccc1O [Compound 3, 8-(2-hydroxy-5-chloroanilinocarbonyl)octanoic acid]
- Solubility (appearance) (pH = 8.28): soluble
- solubility (soluble at pH = 8.28): 200 mg/mL (≈ 637 mM)

Source: patent US5863944A, “Compounds and compositions for delivering active agents” (Emisphere Technologies, Inc., priority 1997, dated 1999)
